{
  "source": "patent US8691511B2",
  "about": "“Hydroxylated 1,2,4-oxadiazole benzoic acid compounds, compositions thereof and their use in bioassays” (PTC Therapeutics, Inc., priority 2006, dated 2014)",
  "key": {"[1]": {"system": "luciferase reporter construct containing a UGA premature termination codon", "assay": "cell-based luciferase reporter assay (nonsense suppression)", "conditions": "293T Human Embryonic Kidney cells stably transfected with UGA luciferase reporter; internal standard", "excerpt": "(§1) Two assays were developed for use in high throughput screens to identify small molecules that promote nonsense suppression. Each assay utilized luciferase because it is a functional reporter gene assay (light is only produced if the protein is functional) and it is extremely sensitive (Light intensity is proportional to luciferase concentration in the nM range). The first assay is a cell-based luciferase reporter assay and the second is a biochemical assay consisting of rabbit reticulocyte lysate and a nonsense-containing luciferase reporter mRNA. In the cell-based assay, a luciferase reporter construct containing a UGA premature termination codon was stably transfected in 293T Human Embryonic Kidney cells. In the biochemical assay, mRNA containing a UGA premature termination codon was used as a reporter in an in vitro translation reaction using rabbit reticulocyte lysate supplemented with tRNA, hemin, creatine kinase, amino acids, KOAc, Mg(OAc)2, and creatine phosphate. […] Synthetic mRNA was prepared in vitro using the T7 promoter and the MegaScript in vitro transcription kit (Ambion)."}, "[2]": {"system": "mRNA containing a UGA premature termination codon", "assay": "biochemical in vitro translation assay, rabbit reticulocyte lysate with nonsense-containing luciferase reporter mRNA", "conditions": "in vitro translation reaction using rabbit reticulocyte lysate, internal standard", "excerpt": "as §1"}},
  "data": [
    {"smiles": "CC(C)c1ccc(N2CC(=O)N(c3cccc(C(=O)O)c3)C2=O)cc1", "note": "[3-[3-(4-Isopropyl-phenyl)-2,5-dioxo-imidazolidin-1-yl]-benzoic acid]", "values": [
      {"measurement": "luciferase activity", "setting": "[1]", "value": "increased luciferase activity"},
      {"measurement": "luciferase activity", "setting": "[2]", "value": "increased luciferase activity"}
    ]}
  ]
}
